# Experimental data from patent US8592403B2, “Diazepine and diazocane compounds as MC4 agonists” (Pfizer Limited, priority 2008, dated 2013).
# Columns and labels:
# human MC3 receptors = target: T1, human MC3 receptors (Homo sapiens, UniProt P41968); experiment: In vitro agonist potency (EC50) at melanocortin receptor type 3, cAMP in recombinant cell line; assay type: cell-based
# T1 construct: stably transfected with full length cDNA encoding human MC1 or MC3 receptors; expressed in transfected cells
# Protocol: Measurement of In Vitro Agonist Potency (EC50) of Compounds Against Melanocortin Receptors Type 1 and 3 (MC1 and MC3).
# Activation of melanocortin (MC) receptors by agonists results in activation of intracellular adenylate cyclase enzymes that synthesise the second messenger signalling molecule, adenosine 3′,5′-cyclic monophosphate (cAMP). Changes in cAMP levels following treatment of recombinant MC1 and MC3 cell lines with test compound were measured and an MC1 and MC3 potency estimate (EC50) calculated as follows: […]
# Human embryonic kidney (HEK) or Chinese hamster ovary cell lines stably transfected with full length cDNA encoding human MC1 or MC3 receptors, respectively, were established using standard molecular biology methods. Test compounds were dissolved in dimethyl sulfoxide (DMSO) at 4 mM. 11 point half log unit increment dilution series of test compound, typically starting at 50 uM were prepared in a buffer comprised of phosphate buffered saline (PBS), 2.5% DMSO and 0.05% pluronic F-127 surfactant. Freshly cultured cells at 80-90% confluence were harvested and re-suspended in Dulbecco's Modified Eagle's Medium (DMEM). Cells (10,000 for MC3, 20,000 for MC1) were added to the test compound dilution series in a 384 well assay plate and incubated for 1 hour at 37° C. The relative cAMP concentration in each well was then measured using a β-galactosidase enzyme fragment complementation method purchased in kit form as the Discoverx cAMP II kit from GE Healthcare/Amersham Biosciences UK. In the case of MC1,3-Isobutyl-1-methylxanthine (IBMX) at a concentration of 750 μM was included in DMEM as the cells were re-suspended for assay. […] Sigmoidal curves were fitted to plots of log10 inhibitor concentration vs percent effect using a custom made software application called SIGHTS and EC50 estimates determined by the software as the concentration of test compound giving an effect half way between the bottom and top asymptotes of the sigmoidal dose response curve. Each experiment included an EC50 determination for alpha melanocyte stimulating hormone, which was used as a standard to track assay consistency and allow fair comparison between EC50 estimates obtained in different experiments.
# MC4 receptor = MC4 receptor (Homo sapiens, UniProt P32245); experiment: MC4 EC50 functional potency (protocol E of US2005/0176772 / WO 2005/077935); assay type: cell-based
# Protocol: The compounds of formula (I) of the present invention have utility as MCR4 agonists in the treatment of various disease states.
# MC5 and MC4 EC50 activity was determined as described by assay protocols D and E, respectively, in US2005/0176772 (pages 28-30).
# [1] = In vitro metabolism rate determination, human liver microsome (HLM) assay; assay type: in vitro ADME; conditions: human, liver microsomes, read-out: HLM: Clint, app
# Outline: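 Human liver microsomes at 0.5 nmol cytochrome P450/ml with 1 μM substrate, pre-warmed 5 min at 37° C, reaction started with NADP; samples taken 0–60 min and terminated. Substrate loss measured; first-order rate constant from log-linear regression converted to half-life or Clint (μl/min/mg protein).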
# CYP3A4 = target: T2, CYP3A4 (Homo sapiens, UniProt P08684); experiment: High density DDI 3 μM cocktail screen in human liver microsomes, midazolam probe; assay type: in vitro ADME; conditions: human, liver microsomes, probe midazolam, read-out: % inhibition 3A4 @ 3 μM
# T2 construct: utilizes human liver microsomes together with isoform-specific clinical drug probes; from tissue; host or cells: human liver microsomes
# Outline: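 Pooled human liver microsomes incubated with isoform-specific clinical probe substrates as a cocktail (midazolam for CYP3A4), with or without test compound at 3 μM. Metabolite formation followed over time by LC-MS/MS. Inhibition expressed as a single-point percentage.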
# MC4 receptor (MC4R) = target: T3, MC4 receptor (MC4R) (Homo sapiens, UniProt P32245); experiment: Nle4, D-Phe7-α-MSH inhibition at the MC4 receptor (competition binding, SPA, CHO-CRE MC4R membranes)
# T3 construct: expressed in transfected cells; host or cells: CHO-CRE MC4R cells (membranes)
# From the text: Nle4, D-Phe7-α-MSH Inhibition at the MC4 Receptor
# Nle4, D-Phe7-α-MSH is a stable analogue of melanocyte-stimulating hormone (MSH), which is an agonist at the MC4 receptor (MC4R). Compounds can be evaluated for their ability to inhibit Nle4, D-Phe7-α-MSH binding to membranes from cells expressing the MC4R using a competition binding assay versus [^125I] Nle4, D-Phe7-α-MSH.
# Cells expressing the MC4R were subject to homogenisation and the membrane fragment isolated by differential centrifugation. CHO-CRE MC4R cell membranes were coupled to PVT-PEI-WGA SPA Beads type A for 2 hours, spun at 1000 RPM for 5 min and suspended to a concentration of 300 ug bead/ml (0.15 ug membrane, 15 ug bead per well). Bead/membrane mix was incubated with 0.06 nM [^125I] Nle4, D-Phe7-α-MSH and 11 half-log concentrations of competitor ligand, in duplicate, in a total volume of 50 μl buffer per well (25 mM HEPES, 1 mM MgCl2, 2.5 mM CaCl2, 1% Pluronic F68, 1 complete EDTA protease inhibitor tablet/50 ml pH7). Non-specific binding was determined by the inclusion of 100 nM SHU9119. The reaction was initiated by the addition of bead/membranes and plates were incubated at room temperature for 12 hours (the first hour on a plate shaker), after which the amount of radioactivity present was determined using a Wallac plate counter. Ki values were determined by data analysis using appropriate software.
# MC3 receptor (MC3R) = target: T4, MC3 receptor (MC3R) (Homo sapiens, UniProt P41968); experiment: Nle4, D-Phe7-α-MSH inhibition at the MC3 receptor (competition binding, SPA, CHO-CRE MC3R membranes)
# T4 construct: expressed in transfected cells; host or cells: CHO-CRE MC3R cells (membranes)
# Outline: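 Competition binding by SPA used CHO-CRE MC3R membranes on WGA beads with 0.06 nM [125I]Nle4,D-Phe7-α-MSH and 11 half-log competitor concentrations. Buffer was 25 mM HEPES, MgCl2, CaCl2, 1% Pluronic F68, pH7, incubated 12 h at room temperature. Non-specific binding was defined with 100 nM SHU9119, and Ki values were derived.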
# T2 sequence (P08684 whole entry, canonical isoform): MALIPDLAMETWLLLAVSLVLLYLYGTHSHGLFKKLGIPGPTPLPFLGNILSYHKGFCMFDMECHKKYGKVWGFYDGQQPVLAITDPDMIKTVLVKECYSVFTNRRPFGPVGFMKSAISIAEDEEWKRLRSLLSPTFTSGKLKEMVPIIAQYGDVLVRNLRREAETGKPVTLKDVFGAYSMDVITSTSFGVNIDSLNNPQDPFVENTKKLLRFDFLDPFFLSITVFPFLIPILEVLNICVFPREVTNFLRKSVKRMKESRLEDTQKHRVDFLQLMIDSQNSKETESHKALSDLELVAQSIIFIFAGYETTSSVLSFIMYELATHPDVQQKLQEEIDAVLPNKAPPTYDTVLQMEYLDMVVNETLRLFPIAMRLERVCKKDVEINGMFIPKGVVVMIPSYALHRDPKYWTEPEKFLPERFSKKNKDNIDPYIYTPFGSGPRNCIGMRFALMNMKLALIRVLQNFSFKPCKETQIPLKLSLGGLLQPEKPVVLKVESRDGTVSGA
# T4 sequence (P41968 whole entry): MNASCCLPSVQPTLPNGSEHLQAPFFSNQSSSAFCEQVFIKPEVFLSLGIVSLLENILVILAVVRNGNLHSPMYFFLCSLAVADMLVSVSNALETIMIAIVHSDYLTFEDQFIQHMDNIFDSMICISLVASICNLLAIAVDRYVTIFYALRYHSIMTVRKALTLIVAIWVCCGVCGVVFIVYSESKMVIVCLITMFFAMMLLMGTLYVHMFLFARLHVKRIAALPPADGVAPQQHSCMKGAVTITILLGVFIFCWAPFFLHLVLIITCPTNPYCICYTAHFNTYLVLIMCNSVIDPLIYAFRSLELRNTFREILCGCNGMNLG
# Chain of MC4 receptor (P32245 whole entry): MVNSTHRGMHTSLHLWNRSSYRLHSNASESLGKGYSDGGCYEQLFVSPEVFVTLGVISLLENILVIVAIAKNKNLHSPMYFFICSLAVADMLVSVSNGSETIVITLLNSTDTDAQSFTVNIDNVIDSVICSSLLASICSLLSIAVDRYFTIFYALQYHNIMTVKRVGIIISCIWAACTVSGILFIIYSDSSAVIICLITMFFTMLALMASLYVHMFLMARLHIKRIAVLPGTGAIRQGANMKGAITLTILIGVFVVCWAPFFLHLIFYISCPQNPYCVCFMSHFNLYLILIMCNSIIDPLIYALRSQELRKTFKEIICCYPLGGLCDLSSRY
# T3 sequence (P32245 whole entry): as above
# T1 sequence (P41968 whole entry): as the sequence (P41968 whole entry) above
EC50 (human MC3 receptors),EC50 (MC4 receptor),microsomal CLint at 1 μM [1],inhibition at 3 µM (CYP3A4),Ki (MC4 receptor (MC4R)),Ki (MC3 receptor (MC3R)),SMILES
6670 nM,25.1 nM,41 µL/min/mg,88%,,,CS(=O)(=O)N1CCN(C(=O)[C@@H]2CN(c3cccnn3)C[C@H]2c2ccc(F)cc2F)CCCC1c1ccc(Cl)cc1 (mixture of isomers) [Example 41]
,15.7 nM,22.7 µL/min/mg,58.2%,53.9 nM,1090 nM,"COc1ccc([C@@H]2CN(c3ccc(=O)n(C)n3)C[C@H]2C(=O)N2CCCC(c3ccc(Cl)cc3)N(S(C)(=O)=O)CC2)c(F)c1 (mixture of isomers) [Example 115, 6-[(3S,4R)-3-{[5-(4-chlorophenyl)-4-(methylsulfonyl)-1,4-diazocan-1-yl]carbonyl}-4-(2-fluoro-4-methoxyphenyl)pyrrolidin-1-yl]-2-methylpyridazin-3(2H)-one]"
942 nM,38 nM,177 µL/min/mg,87.5%,,,"CS(=O)(=O)N1CCN(C(=O)[C@@H]2CN(c3ccc(C#N)cn3)C[C@H]2c2ccc(F)cc2F)CCCC1c1ccccc1 (single isomer, unassigned) [Example 39]"
,12.7 nM,24.8 µL/min/mg,44.3%,50.5 nM,1300 nM,"COc1ccc([C@@H]2CN(c3ccc(=O)[nH]n3)C[C@H]2C(=O)N2CCCC(c3ccc(Cl)cc3)N(S(C)(=O)=O)CC2)c(F)c1 (single isomer, unassigned) [Example 113]"
,6.4 nM,38 µL/min/mg,66.5%,28.5 nM,250 nM,"COC(=O)N1CCN(C(=O)[C@@H]2CN(c3ccc(C#N)nn3)CC2c2ccc(OC)cc2F)CCCC1c1ccc(Cl)cc1 (stereo in doubt) [Example 106, methyl 8-(4-chlorophenyl)-4-{[(3S,4S)-4-(2-fluoro-4-methoxyphenyl)-1-(6-cyanopyridazin-3-yl)pyrrolidin-3-yl]carbonyl}-1,4-diazocane-1-carboxylate]"
,23.2 nM,17.4 µL/min/mg,80.4%,226 nM,1680 nM,CC(=O)N1CCN(C(=O)[C@@H]2CN(c3ccc4nncn4n3)C[C@H]2c2ccc(Cl)cn2)CCC[C@@H]1c1ccc(Cl)cc1 [Example 5]
,52.1 nM,17 µL/min/mg,23.9%,1010 nM,11500 nM,CC(=O)N1CCN(C(=O)[C@@H]2CN(C(C)(C)C)C[C@H]2c2ccc(F)cc2F)CCC[C@H]1c1ccc(Cl)cc1 [Example 8]
,52.8 nM,44.7 µL/min/mg,29.1%,1530 nM,12600 nM,COCC(=O)N1CCN(C(=O)[C@@H]2CN(C(C)(C)C)C[C@H]2c2ccc(F)cc2F)CCC[C@H]1c1ccc(Cl)cc1 [Example 9]
,32.8 nM,17 µL/min/mg,34%,807 nM,4150 nM,CC(C)(C)N1C[C@@H](C(=O)N2CCC[C@@H](c3ccc(Cl)cc3)N(C(=O)CC(F)(F)F)CC2)[C@H](c2ccc(F)cc2F)C1 [Example 12]
,13.8 nM,37.8 µL/min/mg,48.8%,366 nM,5000 nM,CCCC(=O)N1CCN(C(=O)[C@@H]2CN(C(C)(C)C)C[C@H]2c2ccc(F)cc2F)CCC[C@H]1c1ccc(Cl)cc1 [Example 13]
,18.5 nM,92.6 µL/min/mg,55.5%,378 nM,2100 nM,CC(C)CC(=O)N1CCN(C(=O)[C@@H]2CN(C(C)(C)C)C[C@H]2c2ccc(F)cc2F)CCC[C@H]1c1ccc(Cl)cc1 [Example 16]
,43.3 nM,118 µL/min/mg,66.9%,513 nM,2780 nM,CC(C)(C)N1C[C@@H](C(=O)N2CCC[C@@H](c3ccc(Cl)cc3)N(C(=O)C3CCCC3)CC2)[C@H](c2ccc(F)cc2F)C1 [Example 17]
,10.8 nM,234 µL/min/mg,75.8%,121 nM,101 nM,CN(C)C(=O)N1CCN(C(=O)[C@@H]2CN(c3ccc(C#N)nn3)C[C@H]2c2ccc(Cl)cn2)CCC[C@H]1c1ccc(Cl)cc1 [Example 45]
,7.6 nM,8 µL/min/mg,53%,16.4 nM,990 nM,"COC(=O)N1CCN(C(=O)[C@@H]2CN(c3ccc(=O)[nH]n3)C[C@H]2c2ccc(OC)cc2F)CCC[C@H]1c1ccc(Cl)cc1 [Example 69, methyl 8S-(4-chlorophenyl)-4-{[(3S,4R)-4-(2-fluoro-4-methoxyphenyl)-1-(6-oxo-1,6-dihydropyridazin-3-yl)pyrrolidin-3-yl]carbonyl}-1,4-diazocane-1-carboxylate]"
,55.4 nM,43.4 µL/min/mg,49.5%,1050 nM,10300 nM,COC(=O)N1CCN(C(=O)[C@@H]2CN(C(C)(C)C)C[C@H]2c2ccc(OC)cc2F)CCC[C@H]1c1ccc(Cl)cc1 [Example 71]
,5.26 nM,13.9 µL/min/mg,46.9%,52 nM,201 nM,"COC(=O)N1CCN(C(=O)[C@@H]2CN(c3ccc(C#N)nn3)C[C@H]2c2ccc(Cl)cn2)CCC[C@H]1c1ccc(Cl)cc1 [Example 98, methyl 8S-(4-chlorophenyl)-4-{[(3S,4S)-4-(5-chloropyridin-2-yl)-1-(6-cyanopyridazin-3-yl)pyrrolidin-3-yl]carbonyl}-1,4-diazocane-1-carboxylate]"
,12 nM,16 µL/min/mg,65%,174 nM,545 nM,CS(=O)(=O)N1CCN(C(=O)[C@@H]2CN(c3ccc(C#N)nn3)C[C@H]2c2ccc(Cl)cn2)CCC[C@H]1c1ccc(Cl)cc1 [Example 102]
,123 nM,59 µL/min/mg,63.5%,180 nM,875 nM,"COc1ccc([C@@H]2CN(c3ccc(Cl)nn3)C[C@H]2C(=O)N2CCCC(c3ccc(Cl)cc3)N(S(C)(=O)=O)CC2)c(F)c1 (stereo partly drawn) [Example 108, [5-(4-chlorophenyl)-4-(methylsulfonyl)-1,4-diazocan-1-yl]-[(3S,4R)-1-(6-chloro-pyridazine-3-yl)-4-(2-fluoro-4-methoxyphenyl)-pyrrolidin-3-yl]-methanone]"
